Tests used:
[1] = Loading capacity of cochleates for molecules as bridging agents (UV absorption / HPLC); assay type: physicochemical; details: with the lipid amount of column Lipids (mg): 5 mg for TAPS, 38.11 mg for Tobramycine
Protocol: Loading capacities of the new cochelates and nano-cochleates for TAS and tobramycin were determined. For TAS, known amounts of cochleates or nano-cochleates were first dissolved with chloroform, then added with water (pH=2), followed by strong shaking. The water phase was separated hereafter, and the same procedure was repeated two more times. The water phases collected three times were combined. The concentration of the extract was determined by UV absorption at 380 nm. […] The loading amount was determined based on the decreased concentration in the supernatant after cochleate formation. For mobile phase, 2.0 g of tris (hydroxymethyl) aminomethan was first dissolved with 800 ml of water, followed by addition of 20 ml of 1N H2SO4 and acetanitrile to a total volume of 2000 ml. For detectability, a solution of 2,4-dinitrofluourobene (10 mg/ml in alcohol) was prepared within 5 days prior to use and refrigerated. A water solution of tris (hydroxymethyl) aminomethane (15 mg/ml) was also prepared as a stock solution. Within 4 hours of analysis, this stock solution, 40 ml, was diluted with dimethyl sulfoxide (DMSO) to 200 ml. […] For the supernatant (the sample to be measured), 1 ml of 5.5 mg/ml of tobramycin solution was added into a liposome suspension with a lipid-to-drug ratio of 1:5. […]

E. Coli cell line, DH5α = assay: Antibiotic activity of tobramycin in solution, cochleates and nano-cochleates (colony counting); assay type: cell-based; details: 0.5 μg/ml, 37° C., 24 hrs
Protocol: FIG. 9. Antibiotic activity of tobramycin formulated in solution, cochleates and nano-cochleates. The drug of various doses were added to E. Coli prior to incubation at 37° C., followed by counting of the colonies. Tobramycin was selected as a model drug to examine the capability of cochelates and nano-cochleates to deliver hydrophilic drugs across cell membranes because the antibiotic function of tobramycin relies on its binding to ribosomes inside of cells. In other words, tobramycin's antibiotic activity reflects internalization of the drug into the cells. For this purpose, tobramycin-loaded cochleates and nano-cochleates prepared as in Example 2 were incubated with E. Coli at various doses. As a control, a tobramycin solution was also incubated with E. Coli under identical conditions. Experimentally, one drop of E. Coli cell line, DH5α, was added to 2 ml LB Broth solution and incubated at 37° C. for 24 hrs to prepare 1:10 DH5α culture solution. Then, 5 ul of the DH5α culture solution was diluted to 2 ml and tobramycin was added in the form of cochleates and nano-cochleates at the final concentrations of 0, 0.5, 1.0, 2.5, and 5.0 μg/ml, respectively. The tobramycin-added cell cultures were incubated at 37° C., with shaking at 200 rpm, for 24 hrs. […]

With `NC[C@H]1O[C@H](O[C@H]2[C@H](O)[C@@H](O[C@H]3O[C@H](CO)[C@@H](O)[C@H](N)[C@H]3O)[C@H](N)C[C@@H]2N)[C@H](N)C[C@@H]1O` [Tobramycine, tobramycin] the “Drug (mg) loaded in cochleates” value [1] was 5.5 mg, the “antibiotic activity of drug solution relative to large cochleates” value (E. Coli cell line, DH5α) was 75 times and the “antibiotic activity of drug solution relative to nano-cochleates” value (E. Coli cell line, DH5α) was “slightly higher”.

Source: patent US20090036417A1, “COCHLEATES WITHOUT METAL CATIONS AS BRIDGING AGENTS” (priority 2002, published 2009)
